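Five concentrations, 48 hours, 96-well plates. Abbreviation: GI50, concentration required for 50% inhibition of growth.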 Calls of active or inactive are those of the source. No stated cut-off is given here; in the data, active = GI50 up to about 1.1 µM and inactive = higher.
Tests used:
Assay in all cases: DTP human tumour cell line panel, 48 h
DLD-1 = tested on: DLD-1
DMS-114 = tested on: DMS-114
DMS-273 = tested on: DMS-273
KM-20L2 = tested on: KM-20L2
LXFL 529 = tested on: LXFL 529
M19-MEL = tested on: M19-MEL
HOP-18 = tested on: HOP-18
XF498 = tested on: XF498
RXF 631 = tested on: RXF 631

`CN1C(=O)CN2C(Cl)(Cl)C2(c2ccccc2F)c2cc([N+](=O)[O-])ccc21` (stereo not given) was tested, and the GI50 (DLD-1) was 35.1 µM (inactive), the GI50 (DMS-114) was 42.8 µM (inactive) and the GI50 (DMS-273) was 39.4 µM (inactive). The GI50 (KM-20L2) was 26.7 µM (inactive), the GI50 (LXFL 529) was 58.1 µM (inactive) and the GI50 (M19-MEL) was 65.6 µM (inactive).
For `CC1(O)C=CC2CCC1C2O` (stereo not given), the GI50 (DLD-1) was 58.7 µM (inactive), the GI50 (DMS-114) was 17.7 µM (inactive) and the GI50 (DMS-273) was 55.6 µM (inactive). For the same compound, the GI50 (HOP-18) was > 100 µM (inactive), the GI50 (KM-20L2) was 50.9 µM (inactive) and the GI50 (LXFL 529) was 78.9 µM (inactive). For the same compound, the GI50 (M19-MEL) was > 100 µM (inactive) and the GI50 (XF498) was > 100 µM (inactive).
In the case of `O=[N+]([O-])c1ccc(C2SCc3nc4ccccc4n32)cc1` (stereo not given), the GI50 (DLD-1) is reported as 89.7 µM (inactive), the GI50 (DMS-114) is reported as 35.1 µM (inactive) and the GI50 (DMS-273) is reported as 54.1 µM (inactive). The GI50 (HOP-18) was 88.3 µM (inactive), the GI50 (KM-20L2) was > 100 µM (inactive) and the GI50 (LXFL 529) was 43.4 µM (inactive). The GI50 (M19-MEL) was 81.8 µM (inactive), the GI50 (RXF 631) was > 100 µM (inactive) and the GI50 (XF498) was 12.3 µM (inactive).
In the case of `COc1ccc(OC)c2c1CC(C(=O)O)(C(=O)O)CC2=O`, the GI50 (DMS-114) is reported as > 100 µM (inactive), the GI50 (KM-20L2) is reported as > 100 µM (inactive) and the GI50 (LXFL 529) is reported as > 100 µM (inactive).
With `CC(C)N(C(=O)C12C3C4C1C1C4(C#N)C3C12C#N)C(C)C` (stereo not given) the GI50 (DLD-1) was > 100 µM (inactive), the GI50 (DMS-114) was > 100 µM (inactive) and the GI50 (HOP-18) was > 100 µM (inactive). For the same compound, the GI50 (KM-20L2) was > 100 µM (inactive), the GI50 (LXFL 529) was > 100 µM (inactive) and the GI50 (M19-MEL) was > 100 µM (inactive). The GI50 (RXF 631) was > 100 µM (inactive) and the GI50 (XF498) was > 100 µM (inactive).
For `CC(=O)N/C(=C\c1ccccc1/C=C(\NC(C)=O)c1nc2cc(C)c(C)cc2[nH]1)c1nc2cc(C)c(C)cc2[nH]1`, the GI50 (DLD-1) was 19.2 µM (inactive), the GI50 (DMS-114) was 0.23 µM (active) and the GI50 (DMS-273) was 2.56 µM (inactive). For the same compound, the GI50 (KM-20L2) was 29.4 µM (inactive), the GI50 (LXFL 529) was 17.1 µM (inactive) and the GI50 (M19-MEL) was 10.7 µM (inactive). The GI50 (XF498) was 15.6 µM (inactive).
`C=CCC12CC(=O)CCC1CC(=O)C2` (stereo not given) was tested, and the GI50 (DLD-1) was > 100 µM (inactive), the GI50 (DMS-114) was > 100 µM (inactive) and the GI50 (DMS-273) was > 100 µM (inactive). The GI50 (HOP-18) was > 100 µM (inactive), the GI50 (KM-20L2) was > 100 µM (inactive) and the GI50 (LXFL 529) was > 100 µM (inactive). For the same compound, the GI50 (M19-MEL) was > 100 µM (inactive).
For `CC(/C=C/c1ncccc1OCCCCCC(=O)O)=N\NC1=NCCN1`, the GI50 (DLD-1) was > 100 µM (inactive), the GI50 (DMS-114) was > 100 µM (inactive) and the GI50 (DMS-273) was > 100 µM (inactive). The GI50 (KM-20L2) was > 100 µM (inactive), the GI50 (LXFL 529) was > 100 µM (inactive) and the GI50 (M19-MEL) was > 100 µM (inactive). For the same compound, the GI50 (XF498) was > 100 µM (inactive).
`COc1ccc(C(=O)C(C(=O)CCC(=O)Nc2cccc(C(F)(F)F)c2)c2ccccc2)cc1` (stereo not given) was tested, and the GI50 (DLD-1) was > 100 µM (inactive), the GI50 (DMS-114) was 36.2 µM (inactive) and the GI50 (DMS-273) was > 100 µM (inactive). The GI50 (HOP-18) was > 100 µM (inactive), the GI50 (KM-20L2) was > 100 µM (inactive) and the GI50 (LXFL 529) was 62.2 µM (inactive). For the same compound, the GI50 (M19-MEL) was 67.5 µM (inactive) and the GI50 (XF498) was 54.1 µM (inactive).
For `C[C@H](NC(=O)OC1C2C=CC(O)C1CC2)c1ccccc1` (stereo not given in full), the GI50 (DLD-1) was 89.1 µM (inactive), the GI50 (DMS-114) was 60.8 µM (inactive) and the GI50 (DMS-273) was 24.4 µM (inactive). For the same compound, the GI50 (HOP-18) was > 100 µM (inactive), the GI50 (KM-20L2) was 45.3 µM (inactive) and the GI50 (LXFL 529) was > 100 µM (inactive). The GI50 (XF498) was > 100 µM (inactive).

From ChEMBL document CHEMBL1201862, “PubChem BioAssay data set” (2004)
